Active and inactive are the calls of the source. The rule behind the calls is not given here.
Columns and labels:
[1] = molecular target: Acidic mammalian chitinase (Mus musculus, UniProt Q91XA9); test: Inhibition of full-length C-terminal his-tagged mouse AMCase expressed in expressed in CHO-K1 cells assessed as reduction in chitinolytic activity using 4-methylumbelliferyl-beta-D-N,N'-diacetylchitobioside hydrate as substrate after 60 mins by fluorometric assay; assay type: cell-based
[2] = molecular target: Voltage-gated inwardly rectifying potassium channel KCNH2 (Homo sapiens, UniProt Q12809); test: Inhibition of tracer red binding to human ERG expressed in HEK293 cell membranes measured after 2 to 6 hrs by fluorescence polarization assay
Cytochrome P450 1A2 = Cytochrome P450 1A2 (Homo sapiens, UniProt P05177); test: Inhibition of CYP1A2 (unknown origin); assay type: ADME
Cytochrome P450 2C9 = Cytochrome P450 2C9 (Homo sapiens, UniProt P11712); test: Inhibition of CYP2C9 (unknown origin); assay type: ADME
Cytochrome P450 2C19 = Cytochrome P450 2C19 (Homo sapiens, UniProt P33261); test: Inhibition of CYP2C19 (unknown origin); assay type: ADME
Cytochrome P450 2D6 = Cytochrome P450 2D6 (Homo sapiens, UniProt P10635); test: Inhibition of CYP2D6 (unknown origin); assay type: ADME
Cytochrome P450 3A4 = Cytochrome P450 3A4 (Homo sapiens, UniProt P08684); test: Inhibition of CYP3A4 (unknown origin); assay type: ADME
Cytochrome P450 2B6 = Cytochrome P450 2B6 (Homo sapiens, UniProt P20813); test: Inhibition of CYP2B6 (unknown origin); assay type: ADME
[3] = molecular target: Solute carrier family 22 member 2 (Homo sapiens, UniProt O15244); test: Inhibition of OCT2 (unknown origin) at 1 to 10 uM
[4] = molecular target: Multidrug resistance-associated protein 1 (Homo sapiens, UniProt P33527); test: Inhibition of MRP1 (unknown origin) at 1 to 10 uM; details: dose 1-10 µM
[5] = molecular target: Solute carrier family 22 member 6 (Homo sapiens, UniProt Q4U2R8); test: Inhibition of OAT1 (unknown origin) at 1 to 10 uM; details: dose 1-10 µM
[6] = molecular target: Organic anion transporter 3 (Homo sapiens, UniProt Q8TCC7); test: Inhibition of OAT3 (unknown origin) at 1 to 10 uM; details: dose 1-10 µM
[7] = molecular target: Solute carrier family 22 member 1 (Homo sapiens, UniProt O15245); test: Inhibition of OCT1 (unknown origin) at 1 to 10 uM; details: dose 1-10 µM
[8] = AUC (0 to 24 hrs) in Sprague-Dawley rat at 2 mg/kg, iv administered as single bolus dose by LC-MS/MS analysis; assay type: ADME, organism-based; design: time < 24 hr, route intravenous, dose 2 mg/kg; details: in vivo
[9] = AUC (0 to 24 hrs) in Balb/c mouse at 3 mg/kg, iv administered as single bolus dose by LC-MS/MS analysis; assay type: ADME, organism-based; design: time < 24 hr, route intravenous, dose 3 mg/kg; details: in vivo
[10] = AUC (0 to 24 hrs) in Beagle dog at 3 mg/kg, iv administered as single bolus dose by LC-MS/MS analysis; assay type: ADME, organism-based, Canis lupus familiaris; design: time < 24 hr, route intravenous, dose 3 mg/kg; details: in vivo
[11] = AUC (0 to 24 hrs) in Sprague-Dawley rat at 6 mg/kg, po administered as single dose by LC-MS/MS analysis; assay type: ADME, organism-based; design: time < 24 hr, route oral, dose 6 mg/kg; details: in vivo
[12] = Dose normalized AUC (0 to 24 hrs) in Sprague-Dawley rat at 2 mg/kg, iv administered as single bolus dose by LC-MS/MS analysis; assay type: ADME, organism-based; details: in vivo
[13] = Dose normalized AUC (0 to 24 hrs) in Beagle dog at 3 mg/kg, iv administered as single bolus dose by LC-MS/MS analysis; assay type: ADME, organism-based, Canis lupus familiaris; details: in vivo
[14] = Dose normalized AUC (0 to 24 hrs) in Balb/c mouse at 10 mg/kg, po administered as single dose by LC-MS/MS analysis; assay type: ADME, organism-based; details: in vivo
[15] = Dose normalized AUC (0 to 24 hrs) in Beagle dog at 10 mg/kg, po administered as single dose by LC-MS/MS analysis; assay type: ADME, organism-based, Canis lupus familiaris; details: in vivo
[16] = Initial plasma concentration in Balb/c mouse at 3 mg/kg, iv administered as single bolus dose by LC-MS/MS analysis; assay type: ADME, organism-based
[17] = Cmax in Beagle dog at 3 mg/kg, iv administered as single bolus dose by LC-MS/MS analysis; assay type: ADME, organism-based, Canis lupus familiaris; design: route intravenous, dose 3 mg/kg; details: in vivo
[18] = Cmax in Sprague-Dawley rat at 6 mg/kg, po administered as single dose by LC-MS/MS analysis; assay type: ADME, organism-based; design: route oral, dose 6 mg/kg; details: in vivo
[19] = Cmax in Balb/c mouse at 10 mg/kg, po administered as single dose by LC-MS/MS analysis; assay type: ADME, organism-based; design: route oral, dose 10 mg/kg; details: in vivo
[20] = Cmax in Beagle dog at 10 mg/kg, po administered as single dose by LC-MS/MS analysis; assay type: ADME, organism-based, Canis lupus familiaris; design: route oral, dose 10 mg/kg; details: in vivo
[21] = Dose normalized Cmax in Beagle dog at 3 mg/kg, iv administered as single bolus dose by LC-MS/MS analysis; assay type: ADME, organism-based, Canis lupus familiaris; details: in vivo
[22] = Dose normalized Cmax in Sprague-Dawley rat at 6 mg/kg, po administered as single dose by LC-MS/MS analysis; assay type: ADME, organism-based; details: in vivo
[23] = Dose normalized Cmax in Balb/c mouse at 10 mg/kg, po administered as single dose by LC-MS/MS analysis; assay type: ADME, organism-based; details: in vivo
[24] = Dose normalized Cmax in Beagle dog at 10 mg/kg, po administered as single dose by LC-MS/MS analysis; assay type: ADME, organism-based, Canis lupus familiaris; details: in vivo
[25] = Tmax in Sprague-Dawley rat at 6 mg/kg, po administered as single dose by LC-MS/MS analysis; assay type: ADME, organism-based; details: in vivo
[26] = Tmax in Beagle dog at 10 mg/kg, po administered as single dose by LC-MS/MS analysis; assay type: ADME, organism-based, Canis lupus familiaris; details: in vivo
[27] = Elimination half-life in Sprague-Dawley rat at 2 mg/kg, iv administered as single bolus dose by LC-MS/MS analysis; assay type: ADME, organism-based; details: in vivo, read-out: beta t1/2 (converted)
[28] = Elimination half-life in Beagle dog at 10 mg/kg, po administered as single dose by LC-MS/MS analysis; assay type: ADME, organism-based, Canis lupus familiaris; details: in vivo, read-out: beta t1/2 (converted)
[29] = Clearance (0 to infinity) in Balb/c mouse at 3 mg/kg, iv administered as single bolus dose by LC-MS/MS analysis; assay type: ADME, organism-based; details: in vivo
[30] = Oral bioavailability in Sprague-Dawley rat at 6 mg/kg, administered as single dose by LC-MS/MS analysis; assay type: ADME, organism-based; details: in vivo
[31] = Oral bioavailability in Beagle dog at 10 mg/kg, administered as single dose by LC-MS/MS analysis; assay type: ADME, organism-based, Canis lupus familiaris; details: in vivo
[32] = In-vivo inhibition of CHIT1 in C57BL/6N mouse assessed as decrease in chitinolytic activity in plasma at 30 mg/kg, po qd administered via gavage measured up to 12 hrs relative to control; assay type: functional; details: time hrs <=12
[33] = Drug uptake in C57BL/6N mouse lung at 30 mg/kg, po qd administered via gavage measured 24 hrs post dose; assay type: ADME, organism-based; details: in vivo
[34] = Drug uptake in C57BL/6N mouse lung at 30 mg/kg, po bid administered via gavage measured 24 hrs post dose; assay type: ADME, organism-based; details: in vivo
Mus musculus [35] = species on record: Mus musculus; details: C57BL/6N, dose 30.0 mg/kg
Mus musculus [36] = species on record: Mus musculus; details: C57BL/6N, dose 30.0 mg/kg; remark: listed apart in the source
Chitotriosidase-1 = Chitotriosidase-1 (Mus musculus, UniProt Q9D7Q1); test: biochemical
Chitotriosidase-1, sequence (Q9D7Q1 whole entry): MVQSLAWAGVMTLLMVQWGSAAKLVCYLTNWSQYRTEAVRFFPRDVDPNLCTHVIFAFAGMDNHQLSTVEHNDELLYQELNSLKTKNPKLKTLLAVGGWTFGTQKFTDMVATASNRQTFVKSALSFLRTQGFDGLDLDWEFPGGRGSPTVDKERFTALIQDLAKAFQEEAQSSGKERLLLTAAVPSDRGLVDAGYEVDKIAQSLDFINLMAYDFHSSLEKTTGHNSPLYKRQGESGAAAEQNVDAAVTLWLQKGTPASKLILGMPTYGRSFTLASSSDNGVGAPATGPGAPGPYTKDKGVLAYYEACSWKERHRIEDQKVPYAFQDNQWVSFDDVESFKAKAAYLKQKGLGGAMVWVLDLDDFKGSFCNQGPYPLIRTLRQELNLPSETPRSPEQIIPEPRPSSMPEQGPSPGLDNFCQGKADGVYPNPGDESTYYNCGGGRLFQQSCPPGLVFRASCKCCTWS
Description: Inhibition of recombinant full-length C-terminal his-tagged mouse CHIT1 expressed in CHO-K1 cells assessed as reduction in chitinolytic activity using 4-methylumbelliferyl-beta-D-N,N',N"-triacetylchitotrioside as substrate after 60 mins by fluorometric assay

Acidic mammalian chitinase, sequence (Q91XA9 whole entry): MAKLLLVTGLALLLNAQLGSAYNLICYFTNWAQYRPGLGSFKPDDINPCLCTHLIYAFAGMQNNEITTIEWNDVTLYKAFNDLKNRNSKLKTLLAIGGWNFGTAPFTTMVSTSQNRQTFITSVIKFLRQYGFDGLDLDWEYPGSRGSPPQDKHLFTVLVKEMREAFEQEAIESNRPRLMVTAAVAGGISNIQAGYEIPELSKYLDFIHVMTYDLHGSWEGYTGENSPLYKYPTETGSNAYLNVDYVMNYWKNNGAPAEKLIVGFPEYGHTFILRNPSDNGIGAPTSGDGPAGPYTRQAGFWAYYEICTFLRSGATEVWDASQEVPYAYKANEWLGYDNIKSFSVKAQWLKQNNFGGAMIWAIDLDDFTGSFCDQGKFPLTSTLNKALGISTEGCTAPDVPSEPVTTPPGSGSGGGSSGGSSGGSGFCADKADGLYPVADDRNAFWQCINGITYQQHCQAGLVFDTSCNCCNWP
Cytochrome P450 2C9, sequence (P11712 whole entry): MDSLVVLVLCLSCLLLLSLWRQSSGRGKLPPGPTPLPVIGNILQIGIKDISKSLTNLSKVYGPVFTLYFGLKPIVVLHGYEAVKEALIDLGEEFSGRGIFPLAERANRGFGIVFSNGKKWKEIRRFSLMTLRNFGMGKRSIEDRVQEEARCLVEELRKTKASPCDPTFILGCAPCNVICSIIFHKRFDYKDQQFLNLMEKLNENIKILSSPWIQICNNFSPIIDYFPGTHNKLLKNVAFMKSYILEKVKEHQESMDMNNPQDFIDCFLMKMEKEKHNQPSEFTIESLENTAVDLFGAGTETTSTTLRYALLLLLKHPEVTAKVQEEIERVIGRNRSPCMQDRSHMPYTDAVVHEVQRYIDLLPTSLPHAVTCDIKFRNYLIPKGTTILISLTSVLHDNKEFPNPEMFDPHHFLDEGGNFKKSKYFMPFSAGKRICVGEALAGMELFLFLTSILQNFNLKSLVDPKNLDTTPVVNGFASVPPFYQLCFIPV
Cytochrome P450 2C19, sequence (P33261 whole entry): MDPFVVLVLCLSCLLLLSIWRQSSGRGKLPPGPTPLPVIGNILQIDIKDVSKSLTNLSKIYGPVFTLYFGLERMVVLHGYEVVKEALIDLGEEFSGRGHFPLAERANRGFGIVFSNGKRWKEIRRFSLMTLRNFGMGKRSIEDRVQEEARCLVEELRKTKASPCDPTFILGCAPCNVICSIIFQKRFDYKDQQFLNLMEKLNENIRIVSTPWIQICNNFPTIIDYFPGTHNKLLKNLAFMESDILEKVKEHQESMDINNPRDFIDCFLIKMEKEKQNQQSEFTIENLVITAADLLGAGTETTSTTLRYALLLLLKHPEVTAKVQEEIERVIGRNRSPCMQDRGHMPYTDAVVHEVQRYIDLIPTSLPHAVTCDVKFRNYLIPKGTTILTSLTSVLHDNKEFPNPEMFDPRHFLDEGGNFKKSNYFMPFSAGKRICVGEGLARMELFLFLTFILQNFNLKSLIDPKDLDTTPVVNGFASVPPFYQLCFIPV
Solute carrier family 22 member 2, sequence (O15244 whole entry): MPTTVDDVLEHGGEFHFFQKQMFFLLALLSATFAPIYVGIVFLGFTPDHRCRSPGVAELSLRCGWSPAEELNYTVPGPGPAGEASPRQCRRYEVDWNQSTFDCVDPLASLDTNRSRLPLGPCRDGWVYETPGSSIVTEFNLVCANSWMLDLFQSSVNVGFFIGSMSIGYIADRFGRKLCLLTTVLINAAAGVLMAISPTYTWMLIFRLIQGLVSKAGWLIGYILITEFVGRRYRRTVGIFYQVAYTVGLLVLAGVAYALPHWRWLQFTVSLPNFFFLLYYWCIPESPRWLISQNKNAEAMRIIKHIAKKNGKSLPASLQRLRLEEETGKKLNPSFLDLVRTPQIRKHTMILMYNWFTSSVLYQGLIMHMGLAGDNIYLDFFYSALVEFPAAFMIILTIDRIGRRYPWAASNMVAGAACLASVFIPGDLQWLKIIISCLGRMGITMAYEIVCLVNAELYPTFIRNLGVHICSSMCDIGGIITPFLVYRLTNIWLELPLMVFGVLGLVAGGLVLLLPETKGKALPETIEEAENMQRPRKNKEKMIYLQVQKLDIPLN
Cytochrome P450 1A2, sequence (P05177 whole entry): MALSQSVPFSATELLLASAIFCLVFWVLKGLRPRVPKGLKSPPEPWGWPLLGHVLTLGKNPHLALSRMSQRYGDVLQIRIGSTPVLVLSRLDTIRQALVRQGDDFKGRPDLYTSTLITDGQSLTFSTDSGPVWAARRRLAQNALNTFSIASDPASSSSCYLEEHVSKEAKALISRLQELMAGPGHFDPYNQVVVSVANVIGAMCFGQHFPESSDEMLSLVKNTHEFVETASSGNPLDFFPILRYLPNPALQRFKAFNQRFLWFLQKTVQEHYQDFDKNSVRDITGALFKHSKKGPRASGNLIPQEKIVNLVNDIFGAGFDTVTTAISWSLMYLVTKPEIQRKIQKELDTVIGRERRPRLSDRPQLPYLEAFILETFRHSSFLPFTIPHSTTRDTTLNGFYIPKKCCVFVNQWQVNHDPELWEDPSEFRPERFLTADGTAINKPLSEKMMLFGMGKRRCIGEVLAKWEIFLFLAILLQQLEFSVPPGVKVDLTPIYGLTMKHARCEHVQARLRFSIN
Cytochrome P450 3A4, sequence (P08684 whole entry): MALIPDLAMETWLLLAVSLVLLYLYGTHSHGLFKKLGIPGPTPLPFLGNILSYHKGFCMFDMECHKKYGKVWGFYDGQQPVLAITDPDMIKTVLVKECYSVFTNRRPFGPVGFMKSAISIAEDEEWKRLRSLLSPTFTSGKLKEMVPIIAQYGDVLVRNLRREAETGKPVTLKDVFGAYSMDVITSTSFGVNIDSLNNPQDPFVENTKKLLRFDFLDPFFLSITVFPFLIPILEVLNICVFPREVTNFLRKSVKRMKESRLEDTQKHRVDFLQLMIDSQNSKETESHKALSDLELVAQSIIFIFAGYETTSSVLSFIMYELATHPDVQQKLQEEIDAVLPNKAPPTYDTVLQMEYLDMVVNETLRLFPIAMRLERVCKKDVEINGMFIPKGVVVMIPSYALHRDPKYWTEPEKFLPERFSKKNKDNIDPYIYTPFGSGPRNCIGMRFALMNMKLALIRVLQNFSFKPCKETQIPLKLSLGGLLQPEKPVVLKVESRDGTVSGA
Cytochrome P450 2D6, sequence (P10635 whole entry): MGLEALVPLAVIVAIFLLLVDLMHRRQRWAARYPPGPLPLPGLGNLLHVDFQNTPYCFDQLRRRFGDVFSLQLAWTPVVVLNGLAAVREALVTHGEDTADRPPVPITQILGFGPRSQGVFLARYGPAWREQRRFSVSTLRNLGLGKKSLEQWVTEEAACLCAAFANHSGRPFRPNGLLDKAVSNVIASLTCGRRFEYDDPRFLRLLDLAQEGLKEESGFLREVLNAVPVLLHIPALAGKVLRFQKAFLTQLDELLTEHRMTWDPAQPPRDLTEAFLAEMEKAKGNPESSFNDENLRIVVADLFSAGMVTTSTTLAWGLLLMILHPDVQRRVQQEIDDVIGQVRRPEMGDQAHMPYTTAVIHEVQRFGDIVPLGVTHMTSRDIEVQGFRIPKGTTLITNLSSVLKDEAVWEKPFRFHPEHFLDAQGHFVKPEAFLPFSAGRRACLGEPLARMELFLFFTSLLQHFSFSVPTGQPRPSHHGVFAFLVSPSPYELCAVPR
Cytochrome P450 2B6, sequence (P20813 whole entry): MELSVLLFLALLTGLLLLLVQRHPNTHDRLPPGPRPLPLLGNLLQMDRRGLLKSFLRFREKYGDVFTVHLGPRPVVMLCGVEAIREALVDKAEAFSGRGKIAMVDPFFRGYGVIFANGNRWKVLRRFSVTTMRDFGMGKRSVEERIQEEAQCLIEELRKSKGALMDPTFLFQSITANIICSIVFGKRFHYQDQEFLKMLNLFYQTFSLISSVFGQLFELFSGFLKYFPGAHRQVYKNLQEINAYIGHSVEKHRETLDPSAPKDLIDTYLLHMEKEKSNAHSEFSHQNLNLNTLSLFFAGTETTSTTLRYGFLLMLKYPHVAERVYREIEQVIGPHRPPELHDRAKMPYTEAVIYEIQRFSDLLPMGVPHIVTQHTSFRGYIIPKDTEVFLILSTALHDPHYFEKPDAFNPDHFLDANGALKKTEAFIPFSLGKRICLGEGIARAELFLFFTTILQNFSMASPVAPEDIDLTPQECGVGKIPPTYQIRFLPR

IC50 [1]: 7.8 nM
Ki [1]: 5.7 nM
inhibition (INH) (Cytochrome P450 1A2): Not Active
inhibition (INH) (Cytochrome P450 2C9): Not Active
inhibition (INH) (Cytochrome P450 2C19): Not Active
inhibition (INH) (Cytochrome P450 2D6): Not Active
inhibition (INH) (Cytochrome P450 3A4): Not Active
inhibition (INH) (Cytochrome P450 2B6): Not Active
inhibition (INH) [3]: Not Active
inhibition (INH) [4]: Not Active
inhibition (INH) [5]: Not Active
inhibition (INH) [6]: Not Active
inhibition (INH) [7]: Not Active
AUC(0-t) at 24 h [8]: 5560 ng·h/mL
AUC(0-t) at 24 h [9]: 8600 ng·h/mL
AUC(0-t) at 24 h [10]: 31000 ng·h/mL
AUC(0-t) at 24 h [11]: 20300 ng·h/mL
AUC/dose [12]: 2.78 kg·mg·h/L/mg
AUC/dose [13]: 10.34 kg·mg·h/L/mg
AUC/dose [14]: 2.22 kg·mg·h/L/mg
AUC/dose [15]: 9.41 kg·mg·h/L/mg
C0 [16]: 3970 ng/mL
Cmax [17]: 2470 ng/mL
Cmax [18]: 2210 ng/mL
Cmax [19]: 3420 ng/mL
Cmax [20]: 7640 ng/mL
Cmax/dose [21]: 0.82 kg.mg/L.mL
Cmax/dose [22]: 0.37 kg.mg/L.mL
Cmax/dose [23]: 0.34 kg.mg/L.mL
Cmax/dose [24]: 0.76 kg.mg/L.mL
Tmax [25]: 2 h
Tmax [26]: 0.5 h
half-life [27]: 4.49 h
half-life [28]: 22.9 h
clearance [29]: 5.83 mL/min/kg
bioavailability [30]: 107%
bioavailability [31]: 91.4%
Drug uptake [33]: Active
Drug uptake [34]: Active
IC50 (Chitotriosidase-1): 28 nM
Ki (Chitotriosidase-1): 26 nM
SMILES: C[C@H]1CN(C2CCN(c3nc(N)n[nH]3)CC2)[C@@H](Cc2ccc(Cl)cc2)CO1 [5-(4-((2S,5S)-5-(4-CHLOROBENZYL)-2-METHYLMORPHOLINO)PIPERIDIN-1-YL)-1H-1,2,4-TRIAZOL-3-AMINE]
IC50 [2]: 23000 nM
inhibition in vivo at 30 mg/kg [32]: 70%
inhibition (Mus musculus [35]): Active
inhibition (Mus musculus [36]): Active
